Measured values reported in US20140135270A1, “MACROCYCLIC COMPOUNDS FOR INHIBITION OF INHIBITORS OF APOPTOSIS” (Ensemble Therapeutics Corp., priority 2012, published 2014).

Tests used:
[1] = molecular target: T1, His-BIR2-3 (125-356, C202A/C213G, XIAP) (Homo sapiens, UniProt P98170, C202A/C213G); test: XIAP-BIR2-3 Dimeric SMAC Peptide Homogeneous Time Resolved Fluorescence (HTRF) Assay; format: binding; details: fluorescein labeled dimeric SMAC peptide
T1 construct: additions of His-BIR2-3 (125-356, C202A/C213G, XIAP), fluorescein labeled dimeric SMAC peptide

His-BIR3 (241-356, XIAP) = molecular target: T2, His-BIR3 (241-356, XIAP) (Homo sapiens, UniProt P98170); test: XIAP-BIR3/SMAC Homogeneous Time Resolved Fluorescence (HTRF) Assay; format: binding; details: fluorescein labeled SMAC peptide
T2 construct: additions of His-BIR3 (241-356, XIAP), fluorescein labeled SMAC peptide
T2 sequence (P98170 241-356): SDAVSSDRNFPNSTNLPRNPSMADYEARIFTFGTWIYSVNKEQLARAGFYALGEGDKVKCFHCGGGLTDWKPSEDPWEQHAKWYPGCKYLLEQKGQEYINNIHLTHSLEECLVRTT

T1 sequence (P98170 125-356 C202A/C213G): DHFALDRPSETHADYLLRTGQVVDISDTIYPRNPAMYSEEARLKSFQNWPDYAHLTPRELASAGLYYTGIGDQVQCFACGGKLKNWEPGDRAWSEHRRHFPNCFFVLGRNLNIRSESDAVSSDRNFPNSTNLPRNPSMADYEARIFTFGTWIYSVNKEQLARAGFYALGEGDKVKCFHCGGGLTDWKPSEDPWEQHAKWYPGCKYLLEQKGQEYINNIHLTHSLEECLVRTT

Structure (SMILES)	IC50 [1] [nM]	IC50 (His-BIR3 (241-356, XIAP)) [nM]
CN[C@@H](C)C(=O)NC(C(=O)N1C[C@@H]2C[C@H]1C(=O)N[C@@H](Cc1ccc3ccccc3c1)C(=O)N[C@H](C(=O)O)Cc1ccc(cc1)OC/C=C/C(=O)N1CCN(C(=O)[C@@H](NC(=O)[C@H](C)NC)C(C)(C)C)[C@@H](C1)C(=O)N[C@@H](Cc1ccc3ccccc3c1)C(=O)N[C@H](C(=O)O)CCC(=O)N2)C(C)(C)C (some centres unmarked) [Example 79]	5.6	44.3
CN[C@@H](C)C(=O)N[C@H](C(=O)N1CC[C@H]2OC/C=C/CC[C@@H](C(=O)O)NC(=O)[C@H](Cc3ccc4ccccc4c3)NC(=O)[C@@H]3[C@@H](CCN3C(=O)[C@@H](NC(=O)[C@H](C)NC)C(C)(C)C)OCc3cn(nn3)[C@H](C(=O)O)CCNC(=O)[C@H](Cc3ccc4ccccc4c3)NC(=O)[C@H]21)C(C)(C)C [Example 15]	4.1	38.9
CN[C@@H](C)C(=O)N[C@@H](CCC(=O)O)C(=O)N1C[C@@H]2C[C@H]1C(=O)N[C@@H](Cc1ccc3ccccc3c1)C(=O)N[C@H](C(=O)O)Cc1ccc(cc1)C(=O)N[C@H]1C[C@@H](C(=O)N[C@@H](Cc3ccc4ccccc4c3)C(=O)N[C@H](C(=O)O)Cc3ccc(cc3)OC/C=C/CO2)N(C(=O)[C@@H](NC(=O)[C@H](C)NC)C(C)(C)C)C1 [Example 63]	2.7	17.9
CN[C@@H](C)C(=O)N[C@H](C(=O)N1C[C@@H]2C[C@H]1C(=O)N[C@@H](Cc1ccc3ccccc3c1)C(=O)N[C@H](C(=O)O)Cc1ccc(cc1)C(=O)N[C@H]1C[C@@H](C(=O)N[C@@H](Cc3ccc4ccccc4c3)C(=O)N[C@H](C(=O)O)Cc3ccc(cc3)OC/C=C/CO2)N(C(=O)[C@@H](NC(=O)[C@H](C)NC)C(C)(C)C)C1)C(C)C [Example 68]	2.7	15.5
CC[C@H](NC(=O)[C@H](C)NC)C(=O)N1C[C@@H]2C[C@H]1C(=O)N[C@@H](Cc1ccc(-c3ccccc3)cc1)C(=O)N[C@H](C(=O)O)Cc1ccc(cc1)C(=O)N[C@H]1C[C@@H](C(=O)N[C@@H](Cc3ccc4ccccc4c3)C(=O)N[C@H](C(=O)O)Cc3ccc(cc3)OC/C=C/CO2)N(C(=O)[C@@H](NC(=O)[C@H](C)NC)C(C)(C)C)C1 [Example 49]	4.8	16.1
CN[C@@H](C)C(=O)N[C@H](C(=O)N1C[C@@H]2C[C@H]1C(=O)N[C@@H](Cc1ccc3ccccc3c1)C(=O)N[C@H](C(=O)O)Cc1ccc(cc1)C(=O)N[C@H]1C[C@@H](C(=O)N[C@@H](Cc3ccc4ccccc4c3)C(=O)N[C@H](C(=O)O)Cc3ccc(cc3)OC/C=C/CO2)N(C(=O)[C@@H](NC(=O)[C@H](C)NC)C(C)(C)C)C1)C(C)O (some centres unmarked) [Example 65]	1.9	14.3
CN[C@@H](C)C(=O)N[C@H](C(=O)N1C[C@@H]2C[C@H]1C(=O)NC(Cc1ccc3ccccc3c1)C(=O)N[C@H](C(=O)NS(=O)(=O)CCCO)Cc1ccc(cc1)OCCCC[C@H]1C[C@@H](C(=O)N[C@@H](Cc3ccc4ccccc4c3)C(=O)N[C@H](C(=O)O)Cc3ccc(cc3)OCc3cn2nn3)N(C(=O)[C@@H](NC(=O)[C@H](C)NC)C(C)(C)C)C1)C(C)(C)C (some centres unmarked) [Example 101]	1	6.1
CN[C@@H](C)C(=O)N[C@@H](CC(N)=O)C(=O)N1C[C@@H]2C[C@H]1C(=O)N[C@@H](Cc1ccc3ccccc3c1)C(=O)N[C@H](C(=O)O)Cc1ccc(cc1)C(=O)N[C@H]1C[C@@H](C(=O)N[C@@H](Cc3ccc4ccccc4c3)C(=O)N[C@H](C(=O)O)Cc3ccc(cc3)OC/C=C/CO2)N(C(=O)[C@@H](NC(=O)[C@H](C)NC)C(C)(C)C)C1 [Example 72]	9.3	48.5
CN[C@@H](C)C(=O)N[C@@H](CC(=O)O)C(=O)N1C[C@@H]2C[C@H]1C(=O)N[C@@H](Cc1ccc3ccccc3c1)C(=O)N[C@H](C(=O)O)Cc1ccc(cc1)C(=O)N[C@H]1C[C@@H](C(=O)N[C@@H](Cc3ccc4ccccc4c3)C(=O)N[C@H](C(=O)O)Cc3ccc(cc3)OC/C=C/CO2)N(C(=O)[C@@H](NC(=O)[C@H](C)NC)C(C)(C)C)C1 [Example 64]	5.9	36.6
CN[C@@H](C)C(=O)N[C@H](C(=O)N1C[C@@H]2C[C@H]1C(=O)N[C@@H](C)C(=O)N[C@H](C(=O)O)Cc1ccc(cc1)C(=O)N[C@H]1C[C@@H](C(=O)N[C@@H](Cc3ccc4ccccc4c3)C(=O)N[C@H](C(=O)O)Cc3ccc(cc3)OC/C=C/CO2)N(C(=O)[C@@H](NC(=O)[C@H](C)NC)C(C)(C)C)C1)C(C)(C)C [Example 44]	3.5	111
CN[C@@H](C)C(=O)N[C@H](C(=O)N1CC[C@@H]2OC/C=C/COc3ccc(cc3)C[C@@H](C(=O)O)NC(=O)[C@H](Cc3ccc4ccccc4c3)NC(=O)[C@@H]3[C@@H](CCN3C(=O)[C@@H](NC(=O)[C@H](C)NC)C(C)(C)C)OCc3cn(nn3)CCC[C@@H](C(=O)O)NC(=O)[C@H](Cc3ccc4ccccc4c3)NC(=O)[C@H]21)C(C)(C)C [Example 11]	2.3	0.8
CN[C@@H](C)C(=O)N[C@H](C(=O)N1C[C@@H]2C[C@H]1C(=O)N[C@@H](Cc1ccc3ccccc3c1)C(=O)N[C@H](C(=O)O)CCC(=O)N[C@H]1C[C@@H](C(=O)N[C@@H](Cc3ccc4ccccc4c3)C(=O)N[C@H](C(=O)O)Cc3ccc(cc3)OC/C=C/CO2)N(C(=O)[C@@H](NC(=O)[C@H](C)NC)C(C)(C)C)C1)C(C)C [Example 56]	5.9	57.9
CN[C@@H](C)C(=O)N[C@H](C(=O)N1C[C@@H]2C[C@H]1C(=O)NC(Cc1ccc3ccccc3c1)C(=O)N[C@H](C(=O)NS(=O)(=O)CCCO)Cc1ccc(cc1)OC/C=C/C[C@H]1C[C@@H](C(=O)N[C@@H](Cc3ccc4ccccc4c3)C(=O)N[C@H](C(=O)O)Cc3ccc(cc3)OCc3cn2nn3)N(C(=O)[C@@H](NC(=O)[C@H](C)NC)C(C)(C)C)C1)C(C)(C)C (some centres unmarked) [Example 94]	0.6	2.1
CC[C@H](NC(=O)[C@H](C)NC)C(=O)N1C[C@@H]2C[C@H]1C(=O)N[C@@H](C)C(=O)N[C@H](C(=O)O)Cc1ccc(cc1)C(=O)N[C@H]1C[C@@H](C(=O)N[C@@H](Cc3ccc4ccccc4c3)C(=O)N[C@H](C(=O)O)Cc3ccc(cc3)OC/C=C/CO2)N(C(=O)[C@@H](NC(=O)[C@H](C)NC)C(C)(C)C)C1 [Example 45]	7.9	106
CN[C@@H](C)C(=O)N[C@H](C(=O)N1C[C@@H]2C[C@H]1C(=O)N[C@@H](Cc1ccc3ccccc3c1)C(=O)N[C@H](C(=O)O)Cc1ccc(cc1)OC/C=C/CO[C@H]1C[C@@H](C(=O)N[C@@H](Cc3cccc(-c4cccnc4)c3)C(=O)N[C@H](C(=O)NS(=O)(=O)C3CC3)Cc3ccc(cc3)OCc3cn2nn3)N(C(=O)[C@@H](NC(=O)[C@H](C)NC)C(C)(C)C)C1)C(C)(C)C [Example 116]	20.1	30.8
CN[C@@H](C)C(=O)N[C@H](C(=O)N1C[C@@H]2C[C@H]1C(=O)N[C@@H](Cc1ccc3ccccc3c1)C(=O)N[C@H](C(=O)O)Cc1ccc(cc1)OC/C=C/CO[C@H]1C[C@@H](C(=O)N[C@@H](Cc3ccc(-c4ccccc4)cc3)C(=O)N[C@H](C(=O)NS(=O)(=O)C3CC3)Cc3ccc(cc3)OCc3cn2nn3)N(C(=O)[C@@H](NC(=O)[C@H](C)NC)C(C)(C)C)C1)C(C)(C)C [Example 106]	1.7	17.9
